# Assay results from patent publication US20070154449A1, “TIGHT JUNCTION MODULATING PEPTIDES FOR ENHANCED MUCOSAL DELIVERY OF THERAPEUTIC COMPOUNDS” (Nastech Pharmaceutical Company Inc., priority 2005, published 2007).
# Columns and labels:
# [1] = system: human-derived tracheal/bronchial epithelial cells (EpiAirway™ Tissue model system); assay: Transepithelial electrical resistance (TER), EpiAirway tissue model; type: cell-based
# Procedure: EpiAirway™ culture membranes were received the day before the experiments started. They are shipped in phenol red-free and hydrocortisone-free Dulbecco's Modified Eagle's Medium (DMEM). The cells are ciliated and psudostratefied, grown to confluency on Millipore Multiscreen Caco-2 96-well assay system comprised of a polycarbonate filter system. Upon receipt, the insert system will be stored unopened at 4° C. and/or cultured in 250 μl basal media per well (phenol red-free and hydrocortisone-free Dulbecco's Modified Eagle's Medium (DMEM)) at 37° C./5% CO2 for 24 hours before use.
# TER measurements were taken using the REMS Autosampler (World Precision Instruments, Sarasota, Fla.) with the electrode leads. The electrodes and a tissue culture blank insert will be equilibrated for at least 20 minutes in MatTek Air-100™ medium with the power off prior to checking calibration. The background resistance of the insert system has been established by multiple measurements of a blank insert plate and the same value was used for each test on the platform. Time zero TER (TER0) was measured before incubation of the inserts with the test formulation. The top electrode will be as adjusted so that it is close to, but not making contact with, the top surface of the insert membrane. Background resistance of the blank insert should be about 5-20 ohms. For each TER determination, 100 μl of MatTek Air-100™ medium was added to the insert and 250 μl in the basal well followed by placement in the Endohm chamber. All TER values are reported as a function of the surface area of the tissue. Resistance was expressed as both Ohms*cm^2 and percent original TER value.
# TER values were calculated as: [formula] [formula] Formula terms for TER calculation defined: […]
# A decrease in TER value relative to the control value indicates a decrease in cell membrane resistance and an increase in mucosal epithelial cell permeability.
# (§1) Of the total 300 μl volume for each test formulation, only a 20 μl sample was applied to the human-derived tracheal/bronchial epithelial cells (EpiAirway™ Tissue model system) in order to assess the effect each test formulation had on TER, LDH and sample permeation.
# [2] = system: human-derived tracheal/bronchial epithelial cells (EpiAirway™ Tissue model system); assay: Cytotoxicity (LDH assay), EpiAirway tissue model; type: cell-based
# Procedure: The amount of cell death was assayed by measuring the release of lactate dehydrogenase (LDH) from the cells into the apical medium using a CytoTox 96 Cytotoxicity Assay Kit (Promega Corp., Madison, Wis.). One percent Octylphenolpoly (ethyleneglycolether)×(Triton X-100™) diluted in phosphate buffered saline (PBS) causes 100% lysis in cultured cells and served herein as a positive control for the LDH assay. Following the one hour incubation period with a test formulation (refer to Table 4 in Example 2 for details of test formulations), the total liquid volume of each insert was brought to a final volume of 200 μl with culture medium. The apical medium was then mixed by pipetting four times with a multichannel pipette set to a 100 μl volume. After mixing, a 100 μl sample from the apical side of each insert was transferred to a new 96-well plate. The apical media samples were sealed with a plate sealer and stored at room temperature for same day analysis or stored overnight at 4° C. for analysis the next day. To measure LDH levels, 5 μl of the 100 μl apical media sample was diluted in 45 μl DPBS in a new 96-well plate. Fresh, cell-free culture medium will be used as a blank. Fifty microliters of substrate solution was added to each well and incubated for 30 minutes at room temperature away from direct light. Following the 30 minute incubation, 50 μl of stop solution was added to each well. Optical density (OD) was measured at 490 nm with a uQuant absorbance plate reader from Biotek Instruments. The measurement of LDH release into the apical media indicates relative cytotoxicity of the samples. Percent cytotoxicity for each test formulation was calculated by subtracting the measured absorbance of the PBS control (basal level of LDH release) from the measured absorbance of the individual test formulation and then dividing that value by the measured absorbance for the 1% Triton X-100™ positive control, multiplied by 100.
# The formula used to calculate percent cytotoxicity is as follows: [formula] Osmolality
# as §1
structure (smiles),measurement,setting,value
CC(C)C[C@H](NC(=O)[C@H](C)NC(=O)[C@H](CCCCN)NC(=O)[C@H](CC(C)C)NC(=O)[C@H](C)NC(=O)[C@H](CC(C)C)NC(=O)[C@H](CCCCN)NC(=O)[C@H](CC(C)C)NC(=O)[C@H](C)NC(=O)[C@H](CC(C)C)NC(=O)[C@@H](N)CCCCN)C(=O)N[C@@H](CCCCN)C(=O)N[C@@H](C)C(=O)N[C@@H](C)C(=O)N[C@@H](CC(C)C)C(=O)N[C@@H](CCCCN)C(=O)N[C@@H](CC(C)C)C(=O)N[C@@H](C)C(N)=O [PN159],% T0 TER,"[1]; 25 μM peptide, pH 7, 20 μl applied",7%
same,TER in the presence of galantamine,"[1]; 25, 50, 100 μM PN159 with 40 mg/ml galantamine lactate, pH 5.0",reduced TER
same,LDH,"[2]; 25 μM peptide, 1 h incubation, % of 1% Triton X-100 control",31%
same,cytotoxicity as measured by LDH,"[2]; PN159 (25, 50, 100 μM) with galantamine lactate 40 mg/ml",low
